Measured values reported in patent US8703786B2, “Etravirine formulations and uses thereof” (priority 2011, dated 2014).
≈ marks a conversion by molar mass, not a printed value. Where two headings read alike, the source gives them in different places.

Experiments:
plasma proteins = conditions: cited from earlier work
p-gp = p-gp (Homo sapiens, UniProt P08183); conditions: in vitro; read-out: apparent IC50 (inhibitor of p-gp); cited from earlier work
[1] = cited from earlier work; for Biopharmaceutics Classification System class: low water solubility and permeability
[2] = cited from earlier work
[3] = Solubility of etravirine in various media by phase solubility analysis (HPLC-UV); type: physicochemical; conditions: for solubility at 72 h: thermodynamic from solid
Procedure: The solubility of etravirine was determined in water, various oils and some organic solvents by phase solubility analysis. Excess drug was added into 20 ml screw-capped scintillation vials containing 5 ml of the tested solvents. The vials were rotated end-over-end at a constant speed on shaker (EBERBACH Corporation, Ann Arbor, Mich.) at room temperature for 3 days (72 hours). The samples were then subjected to centrifugation on a laboratory centrifuge at 13,000 rpm for 15 minutes. Aliquot of the supernatant was diluted with DMSO to the proper concentration before they were analyzed by high-performance liquid chromatography (HPLC) using UV detector.
The HPLC system involved Waters 600 pump, 2487 UV detector and 717 plus auto sampler (Waters Corporation, Milford, Mass.). Separations were done on a 4.6×150 mm, 3.5 μm XTerra MS-C18 column (Waters Corporation, Milford, Mass.). The flow rate was set at 1 ml/min and the wavelength at 304 nm. Chromatographic data acquisition, peak integration and quantification were performed using the Empower software package by Waters Corporation. Mobile phase solution A consisted of 20 mM potassium dihydrogen phosphate aqueous solution and solution B consisted of acetonitrile (40% solution A+60% solution B). pH was adjusted to 3.2 using phosphoric acid. Solvents were regularly prepared prior to each series of analysis.

[4] = Pharmacokinetic / oral bioavailability study in rats (LC-MS/MS of plasma); type: in vivo; conditions: male, Sprague-Dawley, rat
Procedure: Male Sprague-Dawley rats (250-350 g, Harlan Laboratory Inc., Indianapolis, Ind.) were housed in stainless steel cages and had free access to food and water. They were acclimated to the animal care facility for at least 7 days before the start of the study. To facilitate the withdrawal of timed, multiple blood samples from each animal, the right jugular vein of each animal was cannulated one day prior to drug administration. The cannulas were flushed daily with 0.5 mL sterile heparinized saline (100 units/ml). Under ketamine:acetopromazine:xylazine (50:3.3:3.3 mg/kg ip) anesthesia, silicone elastomer tubing (0.02×0.037 in) was inserted into the jugular vein, secured with a silk suture, and exteriorized in the dorsal infrascapular area. The surgical incision was prophylactically treated with nitrofurazone wound powder and closed with surgical staples.
Animals were allowed free access to food and water at all times. The jugular veins of the rats were cannulated under anesthesia the day before the study. All in vivo studies were initiated between 8:00 am and 9:00 am to eliminate possible circadian variation. The animals were fasted overnight with water allowed ad libitum before oral dosing.
The in vivo study consists of four rat groups. […] The second group is a reference group (n=5) which was given an oral 200 mg/kg administration of a suspension of the commercial Intelence® tablets in 1% Tween 80. […] Oral administration was performed using an animal feeding needle (18 in.×3 in. W; 2¼ mm Ball). Multiple blood samples (0.25 mL) were collected (from the jugular vein cannula) immediately before dosing and at 0.5, 1, 1.5, 2, 3, 4, 5, 6, 8, 10 and 24 hours after dosing. An aliquot of each plasma sample was stored at −70° C. pending LC-MS/MS assay.
Etravirine concentrations in rat plasma was analyzed using a sensitive and accurate liquid chromatographic-tandem mass spectrometry (LC-MS/MS) method developed in the laboratory (10). […] The column effluent was monitored using a 3200 QTRAP® mass spectrum, which is a hybrid triple quadruple linear ion trap equipped with a Turbolonspray ion source. […]

p-gp, sequence (P08183 whole entry): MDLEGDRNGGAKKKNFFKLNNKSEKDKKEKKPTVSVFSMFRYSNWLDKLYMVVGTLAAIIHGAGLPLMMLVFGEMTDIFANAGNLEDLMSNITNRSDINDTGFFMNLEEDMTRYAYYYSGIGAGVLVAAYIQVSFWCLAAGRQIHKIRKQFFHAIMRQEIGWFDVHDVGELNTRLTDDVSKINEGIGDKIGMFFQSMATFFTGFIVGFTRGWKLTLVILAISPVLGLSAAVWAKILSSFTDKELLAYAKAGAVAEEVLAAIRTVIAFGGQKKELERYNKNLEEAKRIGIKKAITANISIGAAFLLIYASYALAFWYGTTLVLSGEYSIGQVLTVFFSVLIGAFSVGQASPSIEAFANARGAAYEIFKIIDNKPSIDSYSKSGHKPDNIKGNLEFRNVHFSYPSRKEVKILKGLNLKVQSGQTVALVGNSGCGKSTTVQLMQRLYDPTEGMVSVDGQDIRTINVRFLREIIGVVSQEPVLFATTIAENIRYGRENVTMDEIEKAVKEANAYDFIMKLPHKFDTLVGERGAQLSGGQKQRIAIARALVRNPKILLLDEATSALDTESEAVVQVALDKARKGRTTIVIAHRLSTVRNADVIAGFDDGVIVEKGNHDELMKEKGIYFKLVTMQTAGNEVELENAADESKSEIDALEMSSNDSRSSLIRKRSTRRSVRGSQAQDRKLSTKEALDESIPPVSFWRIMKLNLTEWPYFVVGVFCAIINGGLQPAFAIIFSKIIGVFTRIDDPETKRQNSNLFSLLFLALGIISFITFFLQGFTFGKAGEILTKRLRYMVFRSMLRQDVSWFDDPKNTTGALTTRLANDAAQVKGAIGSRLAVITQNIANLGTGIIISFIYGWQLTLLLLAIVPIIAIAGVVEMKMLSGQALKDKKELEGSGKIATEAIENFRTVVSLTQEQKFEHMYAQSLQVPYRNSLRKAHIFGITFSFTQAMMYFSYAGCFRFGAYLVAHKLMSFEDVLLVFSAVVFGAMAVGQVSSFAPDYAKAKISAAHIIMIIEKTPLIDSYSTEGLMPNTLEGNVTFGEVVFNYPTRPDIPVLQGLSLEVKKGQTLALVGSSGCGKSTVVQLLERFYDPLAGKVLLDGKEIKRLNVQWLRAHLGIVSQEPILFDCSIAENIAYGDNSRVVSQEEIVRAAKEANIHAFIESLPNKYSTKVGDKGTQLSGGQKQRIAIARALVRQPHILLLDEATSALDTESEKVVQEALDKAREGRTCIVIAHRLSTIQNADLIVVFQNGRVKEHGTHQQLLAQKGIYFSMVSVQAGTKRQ

solubility at 72 h ([3]; distilled water, water, read-out: intrinsic solubility): 3.9 µg/mL (≈ 0.00896 mM)
solubility (descriptive) ([3]; in DMSO and 1-methyl-2-pyrrolidinone): freely soluble
solubility (descriptive) ([3]; in PEG 400, Tween 80, Cremophore EL, Tween 20, and Labrasol): soluble
solubility (descriptive) ([3]; in corn oil, soybean oil and olive oil): very slightly soluble
solubility (descriptive) ([3]; in peanut oil, Caproyl 90): slightly soluble
solubility (descriptive) ([3]; in water): practically insoluble
solubility at 72 h ([3]; oil or lipid, Caproyl 90, room temperature, read-out: Drug Solubility): 5420 ± 60 µg/mL (≈ 12.5 mM)
solubility at 72 h ([3]; oil or lipid, Coriander Oil, room temperature, read-out: Drug Solubility): 740 µg/mL (≈ 1.7 mM)
solubility at 72 h ([3]; oil or lipid, Corn Oil, room temperature, read-out: Drug Solubility): 420 µg/mL (≈ 0.965 mM)
solubility at 72 h ([3]; oil or lipid, Labrafac CC, room temperature, read-out: Drug Solubility): 1040 ± 10 µg/mL (≈ 2.39 mM)
solubility at 72 h ([3]; oil or lipid, Lavender Oil, room temperature, read-out: Drug Solubility): 1230 µg/mL (≈ 2.83 mM)
solubility at 72 h ([3]; oil or lipid, Linseed Oil, room temperature, read-out: Drug Solubility): 790 µg/mL (≈ 1.81 mM)
solubility at 72 h ([3]; oil or lipid, Mineral Oil, room temperature, read-out: Drug Solubility): 4 µg/mL (≈ 0.00919 mM)
solubility at 72 h ([3]; oil or lipid, Olive Oil, room temperature, read-out: Drug Solubility): 220 µg/mL (≈ 0.505 mM)
solubility at 72 h ([3]; oil or lipid, Paraffin Oil, room temperature, read-out: Drug Solubility): 9 µg/mL (≈ 0.0207 mM)
solubility at 72 h ([3]; oil or lipid, Peanut Oil, room temperature, read-out: Drug Solubility): 2190 µg/mL (≈ 5.03 mM)
solubility at 72 h ([3]; oil or lipid, Pluro oleique CC 497, room temperature, read-out: Drug Solubility): 1040 ± 20 µg/mL (≈ 2.39 mM)
solubility at 72 h ([3]; oil or lipid, Soybean Oil, room temperature, read-out: Drug Solubility): 310 µg/mL (≈ 0.712 mM)
solubility at 72 h ([3]; organic solvent or mixture, 1-methyl-2-pyrrolidinone, room temperature, read-out: Drug Solubility): 458000 µg/mL (≈ 1050 mM)
solubility at 72 h ([3]; organic solvent or mixture, Cremophore EL, room temperature, read-out: Drug Solubility): 46000 ± 690 µg/mL (≈ 106 mM)
solubility at 72 h ([3]; organic solvent or mixture, Labrasole, room temperature, read-out: Drug Solubility): 61000 µg/mL (≈ 140 mM)
solubility at 72 h ([3]; organic solvent or mixture, PEG 400, room temperature, read-out: Drug Solubility): 71600 µg/mL (≈ 164 mM)
solubility at 72 h ([3]; organic solvent or mixture, Tween 20, room temperature, read-out: Drug Solubility): 55800 ± 870 µg/mL (≈ 128 mM)
solubility at 72 h ([3]; organic solvent or mixture, Tween 80, room temperature, read-out: Drug Solubility): 49700 ± 410 µg/mL (≈ 114 mM)
solubility at 72 h ([3]; Water, room temperature, read-out: Drug Solubility): 3.97 µg/mL (≈ 0.00912 mM)
AUC ([4]; IV 2.5 mg/kg): 1660 ± 498 ng·h/mL
Cmax ([4]; IV 2.5 mg/kg (solution in DMSO)): 2360 ± 1120 ng/mL
half-life ([4]; IV 2.5 mg/kg, read-out: T1/2 (terminal biological half-life) (converted)): 1.14 ± 0.91 h
Compound: Cc1cc(C#N)cc(C)c1Oc1nc(Nc2ccc(C#N)cc2)nc(N)c1Br [Etravirine, 4-[[6-amino-5-bromo-2-[(4-cyanophenyl)amino]-4-pyrimidinyl]oxy]-3,5-dimethyl benzonitrile]
binding to plasma proteins (plasma proteins): highly bound
IC50 (p-gp): 24.2 µM
solubility in PEG 400 reported in the scientific literature ([1]; PEG 400): 74000 µg/mL (≈ 170 mM)
ionization constant (pka) [1]: 3.75
octanol:water partition coefficient (logP) [1]: greater than 5
Biopharmaceutics Classification System class [1]: class IV
Biopharmaceutics Classification System class ([1]; listed as etravirine): class IV
time of median peak concentration ([2]; fasted oral administration): approximately 4.0 hours
terminal elimination half-life in plasma ([2]; in vivo): 30 to 40 h
